Reference: ChEMBL document CHEMBL1138966 (Bioorg Med Chem Lett, 2006)
Converted amounts (≈) assume the structure as drawn.

Assays:
[1] = molecular target: Human immunodeficiency virus type 1 integrase (Human immunodeficiency virus 1, UniProt Q7ZJM1); experiment: Inhibition of strand transfer activity of HIV integrase
[2] = tested on: Human immunodeficiency virus 1; experiment: Antiviral activity against HIV1 3B in MT4 cells; assay type: functional, organism-based; settings: Human immunodeficiency virus 1, 3B
[3] = tested on: MT4; experiment: Cytotoxicity against MT4 cells; assay type: functional; settings: Homo sapiens
[4] = tested on: Human immunodeficiency virus 1; experiment: Antiviral activity against HIV1 3B in MT2 cells; assay type: functional, organism-based; settings: Human immunodeficiency virus 1, 3B
[5] = tested on: Human immunodeficiency virus 1; experiment: Antiviral activity against HIV1 3B assessed as protein binding effect in MT2 cells; assay type: functional, organism-based; settings: Human immunodeficiency virus 1, 3B
[6] = physchem; settings: buffer, pH 7.3
[7] = buffer, pH 7.3

Chain of Human immunodeficiency virus type 1 integrase (Q7ZJM1 whole entry): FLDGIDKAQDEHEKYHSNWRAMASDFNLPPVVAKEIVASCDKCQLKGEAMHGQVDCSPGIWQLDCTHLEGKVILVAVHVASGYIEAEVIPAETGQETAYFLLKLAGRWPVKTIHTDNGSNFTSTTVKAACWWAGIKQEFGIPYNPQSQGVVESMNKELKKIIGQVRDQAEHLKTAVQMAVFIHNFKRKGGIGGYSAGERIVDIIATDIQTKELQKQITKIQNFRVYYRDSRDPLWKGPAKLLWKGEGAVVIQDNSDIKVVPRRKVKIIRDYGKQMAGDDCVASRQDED

SMILES | IC50 [1] | EC50 [2] | CC50 [3] | EC50 [4] | EC50 [5] | solubility [6] | IC50 [2] | solubility [7]
COc1c2c(c(O)c3ncccc13)C(=O)N(Cc1ccc(F)cc1)C2 | 50 nM | 89 nM | 5100 nM |  |  |  |  | 
O=C(NCc1ccc(F)cc1)c1ccc2cccnc2c1O | 2000 nM | > 10000 nM |  |  |  |  |  | 
O=C1c2c(c(C(=O)N3CCOCC3)c3cccnc3c2O)CN1Cc1ccc(F)cc1 | 36 nM |  | 4000 nM | 3.4 nM | 54 nM | 97 µM (≈ 40.9 µg/mL) |  | 
CN(C)C(=O)Oc1c2c(c(O)c3ncccc13)C(=O)N(Cc1ccc(F)cc1)C2 | 760 nM | 3 nM | 1500 nM |  |  |  |  | 
O=C(NCc1ccccn1)c1c2c(c(O)c3ncccc13)C(=O)N(Cc1ccc(F)cc1)C2 | 190 nM |  | 1600 nM | 9.8 nM | 94 nM | 36 µM (≈ 15.9 µg/mL) |  | 
CCOC(=O)c1cccc(-c2c3c(c(O)c4ncccc24)C(=O)N(Cc2ccc(F)cc2)C3)c1 | 2100 nM | 340 nM | 1000 nM |  |  |  |  | 
O=C1c2c(cc3cccnc3c2O)CN1Cc1ccc(F)cc1 | 70 nM |  |  |  |  |  | 100 nM | 
CN(C)C(=O)Oc1c2c(c(O)c3ncccc13)C(=O)N(Cc1ccc(F)cc1)C2=O | 2400 nM |  | 22000 nM |  |  | 2.5 µM (≈ 1.02 µg/mL) | 1180 nM | 
COc1c2c(c(O)c3ncccc13)C(=O)N(Cc1ccc(F)cc1)C2=O | 80 nM | 7500 nM | 19000 nM |  |  | < 1.4 µM |  | 
CCOc1ccc(-c2c3c(c(O)c4ncccc24)C(=O)N(Cc2ccc(F)cc2)C3)cc1 | 1200 nM | 780 nM | 1000 nM |  |  |  |  | 
CCOC(=O)c1ccccc1-c1c2c(c(O)c3ncccc13)C(=O)N(Cc1ccc(F)cc1)C2 | 350 nM | 70 nM | 400 nM |  |  |  |  | 
O=C1c2c(c(-c3c(F)cccc3F)c3cccnc3c2O)CN1Cc1ccc(F)cc1 | 335 nM | 11 nM | 300 nM |  |  |  |  | 
O=C(NCc1ccc(F)cc1)c1nc(N2CCCCS2(=O)=O)c2cccnc2c1O | 50 nM |  | 1500 nM | 3.8 nM | 88 nM |  |  | 7.2 µM (≈ 3.1 µg/mL)
